Test results: US5185149A, “Methods for thrombolytic therapy” (Merck & Co., Inc., priority 1990, dated 1993)

Tested on: blood clots (whole blood or plasma clot labelled with 125I-fibrinogen)
Assay: in vitro clot lysis assay (release of 125I-fibrin-derived fragments, TPA-initiated lysis)
Format: biochemical
Conditions: buffer pH 7.5
Description: In the assay, whole blood or plasma is charged with ^125 I-fibrinogen Thrombin is added to initiate clot formation and subsequently incubated for 2 hours to complete the cross-linking by endogenous Factor XIII. Factor XIIIa inhibitor is added prior to clot initiation or at various times during the 2-hour incubation. At the end of this period, the labelled clot is washed and lysis is initiated by exogenous tissue plasminogen activator (TPA). Exogenous plasminogen is employed in some experiments Endogenous plasminogen is used for others. Clot dissolution as a function of time is monitored by the release of solubilized ^125 I-fibrin-derived fragments.
In FIGS. 1 and 2, the open symbols indicate absence of cerulenin and the closed symbols indicate the presence of 200μM cerulenin at the time of clot formation. Clot lysis is conducted in buffer, pH 7.5; 5 ng/mL TPA represents approximate physiologic concentration. 50 to […] represents pharmacologic concentration range. […] FIG. 2 studies employed glu-plasminogen levels at approximately 10 percent physiologic level ([…]).

C/C=C/C/C=C/CCC(=O)[C@H]1O[C@H]1C(N)=O [Cerulenin, 3-(1-oxo-4,7-nonadienyl)-oxiranecarboxamide]
rates and extents of clot lysis (200μM inhibitor at clot formation, no exogenous plasminogen, TPA at physiological and pharmacological levels, FIG. 1): enhanced rates and extents of lysis
rate of TPA catalyzed clot lysis (200μM inhibitor, 12μg/mL exogenous glu-plasminogen, TPA, FIG. 2): lysis rates were further enhanced
